One assay relates to Rat Uterus. In words: Effects on the Rat Uterus in Vitro. It is filed as cell-based. The following applies: for EC50: Rattus norvegicus, in vitro, 29° C, response 50% that of carbachol, read-out: Test F Rat Uterus, Activity Value (ED50). On the procedure:
The uterine stimulant effect of test compounds was determined in segments of uterus obtained from rats (140-160 g) pretreated subcutaneously with 1 mg/kg of diethyl-stilbesterol 18 hours before the experiment. The tissues were placed in 10 ml chambers filled with de-Jalon solution at 29° C, were aerated and bubbled with 95% O2 and 5% CO2, and were prepared for isometric recording with force displacement transducers. Preparations were stretched to an initial tension of 1 g and were left undisturbed for 30 minutes. Carbachol (1 mcg/ml) was then added to the bath and a response was recorded. After a 10 minute interval the carbachol procedure was repeated. Responses to increasing concentrations of a test compound (0.001 to 10 mcg/ml with one log intervals) were then recorded every 10 minutes. Preparations were washed four times after each response. All doses of compounds were administered in a 0.1 ml volume. Because it has been observed that the magnitude of the second response to carbachol (approximately 10% greater than the first) is close to the maximal response of the tissue, such value was taken as a measure of the sensitivity of a particular segment. Responses to each concentration of the test compound were expressed in terms of percentage of the second response to carbachol and the ED50 (dose producing a response 50% that of carbachol) was calculated graphically. Activity was scored according to the following scale: […]

A further assay relates to chick rectum. Description: Cascade Assay, rectum (smooth muscle stimulant effect). It is filed as cell-based. The following applies: superfused, 50% of maximum (PGE1). The procedure:
(§1) The smooth muscle stimulant effects of test compounds were determined simultaneously in four different tissues that are known to be reactive to naturally occurring prostaglandins. Segments of rat stomach fundus, rat colon, chick rectum and rabbit aortic strip were obtained as described by: Vane, J. R., Brit. J. Pharmacol., 12: 344 (1957); Regoli, D. and Vane, J. R., Brit. J. Pharmacol., 23: 351 (1964); Mann, M. and West, G. B., Brit. J. Pharmacol., 5: 173 (1950); and Furchgott, R. F. and Bhadrakom, R., J. Pharmacol. Exper. Ther., 108: 129 (1953). One end of each preparation was tied to the bottom of a 10 ml tissue chamber and the other to a force displacement transducer (Grass FT-03) for continuous tension recording. The stomach, colon, and rectum segments were stretched to an initial tension of 1 g, while the aortic strip was subjected to 4 g. All preparations were left undisturbed for 1 hour prior to testing. The chambers were equipped with an external jacket through which water, maintained at 40° C, was circulated. Preparations were arranged one beneath the other in descending order (aorta, stomach, colon and rectum). Provision was made for bathing the four tissues successively so that they were superfused with the same fluid (Gaddum, H. J., Brit. J. Pharmacol., 6: 321 [1953]. The bathing fluid consisted of: Krebs bicarbonate solution aerated with a mixture of 95% O2 and 5% CO2 and warmed at 37° C; atropine sulphate (0.1 mcg/ml), phenoxybenzamine hydrochloride (0.1 mcg/ml), propranolol hydrochloride (3.0 mcg/ml), methysergide maleate (0.2 mcg/ml) and brompheniramine maleate (0.1 mcg/ml) were added to eliminate the possibility of smooth muscle responses being due to stimulation of cholinergic, adrenergic, serotonin or histamine receptors. The fluid was circulated by means of a roller pump and was allowed to drip over the preparations at a rate of 10 ml/minute.
(§2) Test compounds were diluted from stock solutions so as to administer quantities ranging from 0.001 100,000 ng in a volume of 0.5 ml. The compounds were applied by dripping on the uppermost tissue, at intervals of 10 to 20 minutes. Maximal increases in tension after each dose were measured and the results were used to plot dose-response curves. ED50 data (doses necessary to produce a response 50% of maximum) were then calculated graphically for each tissue.
(§3) Activity in each tissue was scored according to the following scale: […]

A further assay deals with rabbit aortic strip. In words: Cascade Assay, aorta (smooth muscle stimulant effect). It is filed as cell-based. The note with it: superfused, 50% of maximum (PGA2). The procedure:
as §1, §2, §3

Another assay concerns Gastric Secretion. In words: Effects on Gastric Secretion in the Rat. It is filed as in vivo. The following applies: pylorus-ligated rat, subcutaneous, 2 x 1.5 mg/kg (total 3.0 mg/kg), 4 hours. The procedure:
A procedure based on that described by Lipmann (J. Pharm. Pharmacol., 21:335 [1968]) was used to assess the influence of test compounds on gastric secretion. Rats of one sex weighing 150 to 200 g were randomly divided into groups of six animals each and fasted for 48 hours previously to the experiments, water being available adlibitum. The animals were anesthetized with ether, the abdomen was opened through a midline incision and the pylorus was ligated. Test compounds were diluted from stock solution so as to administer a dose of 1.5 mg/kg in a volume equivalent to 1 ml/kg. Subcutaneous injections were applied immediately after surgery and again 2 hours later, so that a total dose of 3.0 mg/kg was administered. Dilutions were made with phosphate buffer (pH 7.38) as recommended by Lee et al. (Prostaglandins 3:29 [1973]), in order to insure adequate stability of drugs at the subcutaneous depot. Each compound was tested in one group of rats; an additional control group received only the vehicle.
Four hours after pyloric ligation the animals were killed with ether, the cardias ligated and the stomachs removed. The volume of gastric secretion was measured and the contents centrifuged at 500 rpm for 10 minutes. Total acid in the supernatant was titrated against a 0.1 N sodium hydroxide solution and the amount expressed in mEq.
Volume and total acid values of the treated group were compared with those of the controls by the "T" test. Antisecretory activity was scored according to the following scale: […]

Another assay concerns rat stomach fundus. Description: Cascade Assay, stomach (smooth muscle stimulant effect). It is filed as cell-based. The note with it: superfused, 50% of maximum (PGE1). On the procedure:
as §1, §2, §3

The test system of a further assay is rat colon. In words: Cascade Assay, colon (smooth muscle stimulant effect). It is filed as cell-based. The note with it: superfused, 50% of maximum (PGF2α). On the procedure:
as §1, §2, §3

Converted amounts (≈) assume the structure as drawn. Bounds are passed on as bounds.

On to `COC(=O)CCC/C=C\C[C@H]1C(=O)CCC[C@@H]1/C=C/[C@@H](O)C1CC2(CCC2)C1` (relative stereo) [TR-4758, dl Methyl-7-{6-ozo-2R-∂3S-hydroxy-3-(spiro[3.3]hept-2-yl)-1E-propenyl]cyclohex-1R-yl}hept-5Z-enoate], for which the EC50 in the assay on Rat Uterus was > 10 µg/mL. For the same compound, the “Test E Cascade Assay, Rectum, Activity Value (ED50)” value (from here on “Test E Cascade Assay, Rectum”) in the assay on chick rectum is 0 (>10000). The “Test E Cascade Assay, Aorta, Activity Value (ED50)” value (shortened to “Test E Cascade Assay, Aorta”) with rabbit aortic strip is 0 (>10000). In addition, the “Test B Activity Value (% decrease in acidity, inhibition of gastric secretion)” value in the assay on Gastric Secretion is given as 0 (<26). The “Test E Cascade Assay, Stomach, Activity Value (ED50)” value (shortened to “Test E Cascade Assay, Stomach”) with rat stomach fundus is on record as 0 (>10000). In addition, in the assay with rat colon, the “Test E Cascade Assay, Colon, Activity Value (ED50)” value (“Test E Cascade Assay, Colon” for short) is 0 (>10000).

Turning to `COC(=O)CCC/C=C\C[C@H]1C(=O)CCC[C@@H]1/C=C/[C@H](O)C1CC2(CCC2)C1` (relative stereo) [TR-4759, dl Methyl-7-{6-oxo-2R-[3R-hydroxy-3-(spiro[3.3]hept-2-yl)-1E-propenyl]cyclohex-1R-yl}hept-5Z-enoate], the EC50 in the assay with Rat Uterus was > 10 µg/mL. For the same compound, the “Test E Cascade Assay, Rectum” value in the assay on chick rectum is on record as 0 (>10000). In the assay on rabbit aortic strip, the “Test E Cascade Assay, Aorta” value is reported as 0 (>10000). The “Test B Activity Value (% decrease in acidity, inhibition of gastric secretion)” value with Gastric Secretion is 0 (<26). Moreover, the “Test E Cascade Assay, Stomach” value in the assay with rat stomach fundus is 0 (>10000). Moreover, the “Test E Cascade Assay, Colon” value with rat colon is 0 (>10000).

For the compound `O=C1C[C@@H](O)[C@H](/C=C/[C@H](O)C2CC3(CCC3)C2)[C@H]1CCCCCCCO` [TR-4713, 7-{3R-hydroxy-5-oxo-2R-[3R-hydroxy-3-(spiro[3.3]hept-2-yl)-1E-propenyl]cyclopent-1R-yl}heptan-1-ol], the EC50 in the assay with Rat Uterus was > 10 µg/mL. Also, the “Test E Cascade Assay, Rectum” value in the assay with chick rectum was 1 (1001 - 10000). In the assay on rabbit aortic strip, the “Test E Cascade Assay, Aorta” value is recorded as 0 (>10000). Further, in the assay on Gastric Secretion, the “Test B Activity Value (% decrease in acidity, inhibition of gastric secretion)” value was 4 (76-100). In addition, the “Test E Cascade Assay, Stomach” value in the assay with rat stomach fundus is listed as 0 (>10000). For the same compound, the “Test E Cascade Assay, Colon” value in the assay on rat colon is 0 (>10000).

On to `CCOC(=O)CCC/C=C\C[C@H]1C(=O)C[C@@H](O)[C@@H]1/C=C/[C@H](O)C1CC2(CCC2)C1` [TR-4726, Ethyl 7-{3R-hydroxy-5-oxo-2R-[3R-hydroxy-3-(spiro[3.3]hept-2-yl)-1E-propenyl]cyclopent-1R-yl}hept-5Z-enoate], for which, in the assay on Rat Uterus, the EC50 is > 10 µg/mL. For the same compound, the “Test E Cascade Assay, Rectum” value with chick rectum is recorded as 0 (>10000). Besides, the “Test E Cascade Assay, Aorta” value in the assay with rabbit aortic strip is recorded as 0 (>10000). Also, the “Test B Activity Value (% decrease in acidity, inhibition of gastric secretion)” value with Gastric Secretion is recorded as 0 (<26). In the assay with rat stomach fundus, the “Test E Cascade Assay, Stomach” value was 0 (>10000). Moreover, the “Test E Cascade Assay, Colon” value in the assay with rat colon is given as 0 (>10000).

With `CCOC(=O)CCC/C=C\C[C@H]1C(=O)C[C@@H](O)[C@@H]1/C=C/[C@@H](O)C1CC2(CCC2)C1` [TR-4727, Ethyl 7-{3R-hydroxy-5-oxo-2R-[3S-hydroxy-3-(spiro[3.3]hept-2-yl)-1E-propenyl]cyclopent-1R-yl}hept-5Z-enoate], the EC50 in the assay with Rat Uterus is > 10 µg/mL. Besides, in the assay with chick rectum, the “Test E Cascade Assay, Rectum” value was 0 (>10000). For the same compound, the “Test E Cascade Assay, Aorta” value with rabbit aortic strip is listed as 0 (>10000). For the same compound, in the assay on Gastric Secretion, the “Test B Activity Value (% decrease in acidity, inhibition of gastric secretion)” value is recorded as 0 (<26). In the assay with rat stomach fundus, the “Test E Cascade Assay, Stomach” value is on record as 0 (>10000). Moreover, the “Test E Cascade Assay, Colon” value with rat colon is on record as 0 (>10000).

For the compound `CC1([C@@H](O)/C=C/[C@H]2[C@H](O)CC(=O)[C@@H]2CCCCCCCO)CC2(CCC2)C1` [TR-4841, 7-{3R-hydroxy-5-oxo-2R-[3S-hydroxy-3-(2-methylspiro[3.3]hept-2-yl)-1E-propenyl]cyclopent-1R-yl}heptan-1-ol], the EC50 with Rat Uterus was > 10 µg/mL. For the same compound, the “Test E Cascade Assay, Rectum” value with chick rectum was 0 (>10000). For the same compound, the “Test E Cascade Assay, Aorta” value in the assay with rabbit aortic strip is 0 (>10000). In addition, in the assay on Gastric Secretion, the “Test B Activity Value (% decrease in acidity, inhibition of gastric secretion)” value is reported as 0 (<26). Moreover, in the assay with rat stomach fundus, the “Test E Cascade Assay, Stomach” value was 0 (>10000). Also, the “Test E Cascade Assay, Colon” value in the assay on rat colon was 0 (>10000).

On to `COC(=O)CCCCCC[C@H]1C(=O)C[C@@H](O)[C@@H]1/C=C/[C@H](O)C1(C)CC2(CCC2)C1` [TR-4842, Methyl 7-{3R-hydroxy-5-oxo-2R-[3S-hydroxy-3-(2-methylspiro[3.3]hept-2-yl)-1E-propenyl]cyclopent-1R-yl}heptanoate], for which the EC50 in the assay with Rat Uterus was > 10 µg/mL. In the assay on chick rectum, the “Test E Cascade Assay, Rectum” value was 0 (>10000). Moreover, in the assay on rabbit aortic strip, the “Test E Cascade Assay, Aorta” value was 0 (>10000). The “Test B Activity Value (% decrease in acidity, inhibition of gastric secretion)” value in the assay with Gastric Secretion was 0 (<26). In addition, the “Test E Cascade Assay, Stomach” value in the assay on rat stomach fundus is listed as 0 (>10000). Further, the “Test E Cascade Assay, Colon” value in the assay on rat colon is 0 (>10000).

With `CC1([C@H](O)/C=C/[C@H]2[C@H](O)CC(=O)[C@@H]2CCCCCCCO)CC2(CCC2)C1` [TR-4852, 7-{3R-hydroxy-5-oxo-2R-[3R-hydroxy-3-(2-methylspiro[3.3]hept-2-yl)-1E-propenyl]cyclopent-1R-yl}heptan-1-ol], in the assay on Rat Uterus, the EC50 is 0.101 to 1 µg/mL (≈ 0.267 to 2.64 µM). Further, the “Test E Cascade Assay, Rectum” value in the assay with chick rectum is 0 (>10000). In addition, the “Test E Cascade Assay, Aorta” value in the assay with rabbit aortic strip was 0 (>10000). Further, the “Test B Activity Value (% decrease in acidity, inhibition of gastric secretion)” value in the assay on Gastric Secretion was 2 (26-50, significant). For the same compound, the “Test E Cascade Assay, Stomach” value with rat stomach fundus is listed as 0 (>10000). In addition, the “Test E Cascade Assay, Colon” value in the assay on rat colon is on record as 0 (>10000).

As for `C[N+](C)(C)CCOC(N)=O` [carbachol, reference compound], the “magnitude of second response to carbachol relative to the first” value in the assay on Rat Uterus (carbachol 1 mcg/ml, second response greater than the first) is given as “approximately 10%”.
